Assay results reported in PubChem BioAssay AID1963428 (Molecular Pharmacology Branch, DTP, NCI, 2024).
Each block holds one compound with its values, some of them ahead of it.

System: 171881-019-R-J1-PDC complex spheroid growth, % test/control
Experiment: Anticancer human tumor 171881-019-R-J1-PDC patient-derived invasive breast carcinoma cell line growth inhibition [Asc]
Settings: for IC50: curve of first compound; for viability, T/C: stronger effect = lower value
Summary of the method: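 Concentration series start at each agent's clinical Cmax, or at 10 microM when none is established, and drop in half-log steps; agents are applied alone or together to complex spheroids built with HUVEC and hMSC.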
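Throughout, for viability, T/C: spheroids exposed to compounds for 7 days.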

IC50 (second compound 0.03 µM): > 0.1 µM
IC50 (second compound 0.0949 µM): > 0.1 µM
IC50 (second compound 0.3 µM): > 0.1 µM
IC50 (second compound 0.949 µM): > 0.1 µM
IC50 (second compound 3 µM): > 0.1 µM
Compound: NC1CCC(NC2CC2c2ccccc2)CC1 (stereo not given) + CCN1C(C(=O)NC23CCC(C(=O)O)(CC2)CC3)C(c2cccc(Cl)c2F)C2(C(=O)Nc3cc(Cl)ccc32)C12CCCCC2
viability, T/C (second compound 0.03 µM, first compound 0.000316 µM): 123%
viability, T/C (second compound 0.03 µM, first compound 0.001 µM): 120%
viability, T/C (second compound 0.03 µM, first compound 0.00316 µM): 111%
viability, T/C (second compound 0.03 µM, first compound 0.01 µM): 106%
viability, T/C (second compound 0.03 µM, first compound 0.0316 µM): 110%
viability, T/C (second compound 0.03 µM, first compound 0.1 µM): 106%
viability, T/C (second compound 0.0949 µM, first compound 0.000316 µM): 112%
viability, T/C (second compound 0.0949 µM, first compound 0.001 µM): 94.4%
viability, T/C (second compound 0.0949 µM, first compound 0.00316 µM): 109%
viability, T/C (second compound 0.0949 µM, first compound 0.01 µM): 118%
viability, T/C (second compound 0.0949 µM, first compound 0.0316 µM): 113%
viability, T/C (second compound 0.0949 µM, first compound 0.1 µM): 103%
viability, T/C (second compound 0.3 µM, first compound 0.000316 µM): 112%
viability, T/C (second compound 0.3 µM, first compound 0.001 µM): 120%
viability, T/C (second compound 0.3 µM, first compound 0.00316 µM): 127%
viability, T/C (second compound 0.3 µM, first compound 0.01 µM): 107%
viability, T/C (second compound 0.3 µM, first compound 0.0316 µM): 125%
viability, T/C (second compound 0.3 µM, first compound 0.1 µM): 116%
viability, T/C (second compound 0.949 µM, first compound 0.000316 µM): 107%
viability, T/C (second compound 0.949 µM, first compound 0.001 µM): 114%
viability, T/C (second compound 0.949 µM, first compound 0.00316 µM): 110%
viability, T/C (second compound 0.949 µM, first compound 0.01 µM): 121%
viability, T/C (second compound 0.949 µM, first compound 0.0316 µM): 106%
viability, T/C (second compound 0.949 µM, first compound 0.1 µM): 115%
viability, T/C (second compound 3 µM, first compound 0.000316 µM): 102%
viability, T/C (second compound 3 µM, first compound 0.001 µM): 118%
viability, T/C (second compound 3 µM, first compound 0.00316 µM): 110%
viability, T/C (second compound 3 µM, first compound 0.01 µM): 109%
viability, T/C (second compound 3 µM, first compound 0.0316 µM): 110%
viability, T/C (second compound 3 µM, first compound 0.1 µM): 107%

IC50 (second compound 0.1 µM): > 10 µM
IC50 (second compound 0.316 µM): > 10 µM
IC50 (second compound 1 µM): > 10 µM
IC50 (second compound 3.16 µM): > 10 µM
IC50 (second compound 10 µM): > 10 µM
Compound: C=CC(=O)N1CCN(c2nc(=O)n(-c3c(C)ccnc3C(C)C)c3nc(-c4c(O)cccc4F)c(F)cc23)C(C)C1 (stereo not given) + Cc1c(S(C)(=O)=O)c(-c2cc(F)cc(N3CCN(c4ccc(NS(=O)(=O)c5ccc(NC(CCN6CCC(C(=O)OCCCP(=O)(O)O)CC6)CSc6ccccc6)c(S(=O)(=O)C(F)(F)F)c5)cc4)CC3)c2)c(-c2ccc(Cl)cc2)n1C(C)C
viability, T/C (second compound 0.1 µM, first compound 0.0316 µM): 92.3%
viability, T/C (second compound 0.1 µM, first compound 0.1 µM): 111%
viability, T/C (second compound 0.1 µM, first compound 0.316 µM): 100%
viability, T/C (second compound 0.1 µM, first compound 1 µM): 86%
viability, T/C (second compound 0.1 µM, first compound 3.16 µM): 84.9%
viability, T/C (second compound 0.1 µM, first compound 10 µM): 79.6%
viability, T/C (second compound 0.316 µM, first compound 0.0316 µM): 128%
viability, T/C (second compound 0.316 µM, first compound 0.1 µM): 114%
viability, T/C (second compound 0.316 µM, first compound 0.316 µM): 118%
viability, T/C (second compound 0.316 µM, first compound 1 µM): 86.9%
viability, T/C (second compound 0.316 µM, first compound 3.16 µM): 78.9%
viability, T/C (second compound 0.316 µM, first compound 10 µM): 87.7%
viability, T/C (second compound 1 µM, first compound 0.0316 µM): 119%
viability, T/C (second compound 1 µM, first compound 0.1 µM): 123%
viability, T/C (second compound 1 µM, first compound 0.316 µM): 125%
viability, T/C (second compound 1 µM, first compound 1 µM): 104%
viability, T/C (second compound 1 µM, first compound 3.16 µM): 78.7%
viability, T/C (second compound 1 µM, first compound 10 µM): 90.9%
viability, T/C (second compound 3.16 µM, first compound 0.0316 µM): 153%
viability, T/C (second compound 3.16 µM, first compound 0.1 µM): 122%
viability, T/C (second compound 3.16 µM, first compound 0.316 µM): 138%
viability, T/C (second compound 3.16 µM, first compound 1 µM): 133%
viability, T/C (second compound 3.16 µM, first compound 3.16 µM): 99.2%
viability, T/C (second compound 3.16 µM, first compound 10 µM): 99%
viability, T/C (second compound 10 µM, first compound 0.0316 µM): 165%
viability, T/C (second compound 10 µM, first compound 0.1 µM): 186%
viability, T/C (second compound 10 µM, first compound 0.316 µM): 165%
viability, T/C (second compound 10 µM, first compound 1 µM): 187%
viability, T/C (second compound 10 µM, first compound 3.16 µM): 133%
viability, T/C (second compound 10 µM, first compound 10 µM): 105%
